Measurements reported in patent US7875587B2, “Peptide analogues of GIP for treatment of diabetes, insulin resistance and obesity” (UUTECH Limited, priority 2004, dated 2011).

Tests used:
DPP IV = biological target: T1, DPP IV (Sus scrofa, UniProt P22411); assay: DPP IV degradation studies of fatty acid derivatised GIP analogues; assay type: in vitro ADME, porcine; details: pig, isolated enzyme dpp iv, pH 7.8, incubation with DPP IV, read-out: % Intact peptide remaining after time (hours)
T1 construct: purchased Sigma (Poole, Dorset, UK)
T1 sequence (P22411 whole entry): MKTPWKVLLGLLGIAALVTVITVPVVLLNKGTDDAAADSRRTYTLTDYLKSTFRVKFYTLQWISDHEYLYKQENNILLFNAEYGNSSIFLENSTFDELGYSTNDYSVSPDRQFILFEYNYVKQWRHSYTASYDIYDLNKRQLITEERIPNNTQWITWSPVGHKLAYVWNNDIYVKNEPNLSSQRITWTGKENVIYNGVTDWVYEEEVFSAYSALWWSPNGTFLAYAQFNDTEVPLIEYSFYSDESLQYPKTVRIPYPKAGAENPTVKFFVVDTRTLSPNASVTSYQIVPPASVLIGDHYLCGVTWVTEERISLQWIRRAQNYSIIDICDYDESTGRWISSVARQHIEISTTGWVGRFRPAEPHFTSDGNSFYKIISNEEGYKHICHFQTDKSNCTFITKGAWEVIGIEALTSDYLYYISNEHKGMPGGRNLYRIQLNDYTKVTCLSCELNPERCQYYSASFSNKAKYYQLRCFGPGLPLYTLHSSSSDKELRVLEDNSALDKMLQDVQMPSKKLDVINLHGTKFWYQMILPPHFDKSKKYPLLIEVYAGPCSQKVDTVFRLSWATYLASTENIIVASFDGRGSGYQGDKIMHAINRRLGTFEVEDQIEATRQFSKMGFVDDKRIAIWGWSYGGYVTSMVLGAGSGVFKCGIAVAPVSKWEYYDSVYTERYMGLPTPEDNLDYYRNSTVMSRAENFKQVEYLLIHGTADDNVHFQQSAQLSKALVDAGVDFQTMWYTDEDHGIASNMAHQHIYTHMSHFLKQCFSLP
Method: (§1) DPP IV degradation studies. GIP and fatty acid derivatised GIP analogues were incubated at 37° C. with purified porcine dipeptidylpeptidase IV (5 mU in 50 mmol/l triethanolamine-HCl; pH 7.8) for 0, 2, 4, 8 and 24 hours (final peptide concentration 2 mmol/l). The reactions were subsequently terminated by addition of 10% (v/v) TFA/water and the reaction products separated using HPLC. […] HPLC peak area data were used to calculate % intact peptide remaining throughout the incubation.

[1] = biological target: T2, purified porcine dipeptidylpeptidase IV (Sus scrofa, UniProt P22411); assay: as above; assay type: in vitro ADME; details: incubation with DPP IV
T2 construct: purchased Sigma (Poole, Dorset, UK)
T2 sequence (P22411 whole entry): as above
Method: as §1

human GIP receptor = biological target: T3, human GIP receptor (Homo sapiens, UniProt P48546); assay: Intracellular cyclic AMP production in GIP-receptor transfected CHL fibroblasts; assay type: cell-based
T3 construct: expressed in transfected cells; host or cells: Chinese hamster lung (CHL) fibroblasts, stably transfected
T3 sequence (P48546 22-466): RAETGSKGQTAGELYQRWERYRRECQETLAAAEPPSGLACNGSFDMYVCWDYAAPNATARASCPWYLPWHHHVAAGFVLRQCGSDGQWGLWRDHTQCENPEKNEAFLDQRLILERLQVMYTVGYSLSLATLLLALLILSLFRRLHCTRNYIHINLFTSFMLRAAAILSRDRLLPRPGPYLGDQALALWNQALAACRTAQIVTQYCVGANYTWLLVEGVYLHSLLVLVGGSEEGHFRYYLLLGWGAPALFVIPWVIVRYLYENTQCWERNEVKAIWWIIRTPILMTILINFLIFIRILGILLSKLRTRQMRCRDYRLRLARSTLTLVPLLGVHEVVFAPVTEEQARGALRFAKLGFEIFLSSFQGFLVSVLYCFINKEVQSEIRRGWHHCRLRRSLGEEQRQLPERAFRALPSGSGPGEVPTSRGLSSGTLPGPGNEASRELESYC
Method: In vitro biological activity. […] In brief, CHL cells were seeded into 12-well plates (Nünc, Roskilde, Denmark) at a density of 10^5 cells per well and allowed to grow for 48 hours before being loaded with tritiated adenine (2 μCi; TRK311; Amersham, Buckinghamshire, UK). The cells were then incubated at 37° C. for 6 hours in 1 ml DMEM supplemented with 0.5% (w/v) BSA and subsequently washed twice with HBS buffer (pH 7.4). […] The medium was subsequently removed and the cells lysed with 1 ml of 5% TCA containing 0.1 mmol/l unlabelled cyclic AMP and 0.1 mmol/l unlabelled ATP.

BRIN-BD11 cells = assay: Insulin release from clonal pancreatic BRIN-BD11 cells (Example 6); assay type: cell-based; details: 5.6 mmol/l glucose, 20 minutes incubation
Method: Cells and cell culture. Chinese hamster lung (CHL) fibroblasts stably transfected with the human GIP receptor (Gremlich, S. et al., 1995, Diabetes 44: 1202-1208) were cultured in DMEM tissue culture medium containing 10% (v/v) FBS, 1% (v/v) antibiotics (100 U/ml penicillin, 0.1 mg/ml streptomycin). Clonal pancreatic BRIN-BD11 cells (McClenaghan, N. H. et al., 1996, Diabetes 45: 1132-1140) were cultured using RPMI-1640 culture medium containing 10% (v/v) FBS, 1% (v/v) antibiotics (100 U/ml penicillin, 0.1 mg/ml streptomycin) and 11.1 mmol/l glucose. Cells were maintained at 37° C. in an atmosphere of 5% CO2 and 95% air using an LEEC incubator (Laboratory Technical Engineering, Nottingham, UK).
Insulin-release studies were carried out using clonal pancreatic BRIN-BD11 cells as described previously (O'Harte, F. P. M. et al., 2002, Diabetologia 45: 1281-1291). Briefly, BRIN-BD11 cells were seeded into 24-well plates at a density of 10^5 cells per well, and allowed to attach overnight at 37° C. Acute tests for insulin release were preceded by 40 minutes pre-incubation at 37° C. in 1.0 ml Krebs Ringer bicarbonate buffer supplemented with 1.1 mmol/l glucose. Test incubations were performed in the presence of 5.6 mmol/l glucose with a range of concentrations (10^−13 to 10^−6 mol/l) of GIP and GIP analogues. After 20 minutes incubation, the buffer was removed from each well and aliquots (200 μl) used for measurement of insulin.

ob/ob mice = assay: Acute metabolic and dose-response effects with glucose in 18 h fasted ob/ob mice; assay type: in vivo, mouse
Method: Animals. Obese diabetic (ob/ob) mice derived from the colony maintained at Aston University, UK were used at 12-17 weeks of age. The genetic background and characteristics of the colony used have been outlined in detail elsewhere (Bailey, C. J. et al., 1982, Int. J. Obesity 6:11-21; Gault, V. A. et al., 2003, J. Endocrinol. 176: 133-141). Animals were housed in an air-conditioned room at 22±2° C. with a 12 hours light: 12 hours dark cycle. Drinking water and standard rodent maintenance diet (Trouw Nutrition, Cheshire, UK) were freely available. All test solutions were administered by i.p. injection in a final volume of 5 ml/kg bw. Blood was collected from the cut tip of the tail vein of conscious mice into chilled fluoride/heparin microcentrifuge tubes immediately prior to injection and at the times indicated in the Figures. Plasma was separated using a Beckman microcentrifuge (Beckman Instruments, UK) at 13,000 g for 30 second and stored at −20° C. prior to glucose and insulin determinations. All animal experiments were carried out in accordance with the UK Animals (Scientific Procedures) Act 1986.
Metabolic and dose-response effects of GIP and N-AcGIP(LysPAL) analogues (at 6.25-25 nmoles/kg bw) following glucose administration (18 mmoles/kg bw) were examined in mice fasted for 18 hours. […] Food intake and body weight were recorded daily. Plasma glucose and insulin concentrations were monitored at 2-6 day intervals. At 14 days, groups of animals were used to evaluate intraperitoneal glucose tolerance (18 mmoles/kg) and insulin sensitivity (50 U/kg). In a separate series, two experimental protocols were employed to examine the possibility of GIP receptor desensitization after 14 days treatment. […] At the end of the 14-day treatment period, pancreatic tissues were excised for measurement of insulin following extraction with 5 ml/g ice-cold acid ethanol (75% ethanol, […], 1.5% HCl). Whole blood was taken for determination of glycated hemoglobin.
Biochemical analyses. Plasma glucose was assayed by an automated glucose oxidase procedure (Stevens, J. F., 1971, Clin. Chem. Acta 32:199-201) using a Beckman Glucose Analyser II (Beckman, Galway, Ireland). Plasma insulin was determined by dextran-charcoal RIA as described previously (Flatt, P. R. et al., 1981, Diabetologia 20: 573-577). Glycated hemoglobin was determined using cation-exchange columns (Sigma, Poole, Dorset, UK) with measurement of absorbance (415 nm) in wash and eluting buffers using a VersaMax microplate spectrophotometer (Molecular Devices, Wokingham, Berkshire, UK).
Statistics. Results are expressed as mean±SEM. Data were compared using the unpaired Student's t-test. Where appropriate, data were compared using repeated measures ANOVA or one-way ANOVA, followed by the Student-Newman-Keuls post hoc test. Incremental areas under plasma glucose and insulin curves (AUC) were calculated using a computer-generated program employing the trapezoidal rule (Burington, R. S., 1973, Handbook of Mathematical Tables and Formulae, McGraw-Hill, New York) with baseline subtraction.

`CCCCCCCCCCCCCCCC(=O)NCCCC[C@H](NC(=O)[C@H](CC(=O)O)NC(=O)[C@H](CCSC)NC(=O)[C@H](C)NC(=O)[C@@H](NC(=O)[C@H](CO)NC(=O)[C@H](Cc1ccc(O)cc1)NC(=O)[C@H](CC(=O)O)NC(=O)[C@H](CO)NC(=O)[C@@H](NC(=O)[C@H](Cc1ccccc1)NC(=O)[C@@H](NC(=O)CNC(=O)[C@H](CCC(=O)O)NC(=O)[C@H](C)NC(=O)[C@H](Cc1ccc(O)cc1)NC(C)=O)[C@@H](C)O)[C@@H](C)CC)[C@@H](C)CC)C(=O)N[C@H](C(=O)N[C@@H](Cc1c[nH]cn1)C(=O)N[C@@H](CCC(N)=O)C(=O)N[C@@H](CCC(N)=O)C(=O)N[C@@H](CC(=O)O)C(=O)N[C@@H](Cc1ccccc1)C(=O)N[C@H](C(=O)N[C@@H](CC(N)=O)C(=O)N[C@@H](Cc1c[nH]c2ccccc12)C(=O)N[C@@H](CC(C)C)C(=O)N[C@@H](CC(C)C)C(=O)N[C@@H](C)C(=O)N[C@@H](CCC(N)=O)C(=O)N[C@@H](CCCCN)C(=O)NCC(=O)N[C@@H](CCCCN)C(=O)N[C@@H](CCCCN)C(=O)N[C@@H](CC(N)=O)C(=O)N[C@@H](CC(=O)O)C(=O)N[C@@H](Cc1c[nH]c2ccccc12)C(=O)N[C@@H](CCCCN)C(=O)N[C@@H](Cc1c[nH]cn1)C(=O)N[C@@H](CC(N)=O)C(=O)N[C@H](C(=O)N[C@H](C(=O)N[C@@H](CCC(N)=O)C(=O)O)[C@@H](C)O)[C@@H](C)CC)C(C)C)[C@@H](C)CC` [N-AcGIP(LysPAL^16)] showed a remaining at 2 h, 2 mmol/l (DPP IV; 2 h) of 100%, a remaining at 8 h, 2 mmol/l (DPP IV; 8 h) of 100% and a remaining at 24 h, 2 mmol/l (DPP IV; 24 h) of 100%. The “% Intact peptide remaining after time (hours)” value ([1]; 0 h) was 100%, the “% Intact peptide remaining after time (hours)” value ([1]; 24 h) was “remained completely intact” and the EC50 (human GIP receptor) was 12.1 nM. For the same molecule, the “insulin secretion compared to control” value (BRIN-BD11 cells) was “significantly stimulated glucose-induced insulin secretion”, the “enhancement of overall glucose-mediated insulin release (AUC) compared to native GIP” value (ob/ob mice; 25 nmoles/kg i.p. with glucose) was 1.5 fold and the “overall glucose excursion compared to native GIP” value (ob/ob mice; 25 nmoles/kg i.p. with glucose) was “decreased the overall glucose excursion”. The “overall glucose excursion (glucose AUC) compared to glucose alone” value (ob/ob mice; 25 nmoles/kg i.p. with glucose 18 mmoles/kg, 0-60 min) was “significantly lowered glucose AUC”.
